Data as given in patent US11447512B2 (Shenzhen TargetRx, Inc., priority 2017, dated 2022).
Where a name gives a salt, the structure may show the parent alone. Read-outs that look alike come from different tables or passages of the source.

Columns and labels:
[1] = test system: HIV-1; assay: microbe, parasite or virus in culture; conditions: Human immunodeficiency virus 1, MT4, 120 h, read-out: HIV activity and cytotoxicity data EC50 (nM)
Procedure: The data was analyzed by GraphPad Prism software, and the curve was fitted and EC50 and CC50 values were calculated. EC50 refers to the effective concentration that inhibits 50% virus production, 50% virus infectivity, or 50% virus-induced cellular effects. CC50 refers to the inhibitory concentration that reduces the cell growth or viability of uninfected cells by 50%.
Compound treatment: the test compounds and the reference compounds were 2-fold diluted with DMSO and added to the cell culture plate. The test compounds and the reference compounds were tested at 8 concentrations in duplicate.
Viral infection and cell treatment: HIV-1 and MT-4 cells were co-incubated at 37° C., in an incubator with 5% CO2 for 1 h. The infected cells were then seeded in a cell culture plate at a certain density. The final concentration of DMSO in the cell culture medium was 0.5%. The cells were incubated at 37° C., in an incubator with 5% CO2 for 5 days. The cells tested in the cytotoxicity assay were uninfected MT-4 cells, and other test conditions were with the same as that of the antiviral activity assay.
The activity assay of the cell: the cell viability was tested by using cell viability assay Reagent CellTiter-glo (Promega). The raw data was used for calculating the anti-HIV-1 activity and cytotoxicity of the Compounds.

[2] = Cytotoxicity in uninfected MT-4 cells (CellTiter-glo); assay type: cell-based; conditions: human, read-out: HIV activity and cytotoxicity data CC50; for CC50: 5 days
Procedure: The data was analyzed by GraphPad Prism software, and the curve was fitted and EC50 and CC50 values were calculated. […] CC50 refers to the inhibitory concentration that reduces the cell growth or viability of uninfected cells by 50%.

[3] = test system: HBV; assay: In vitro anti-HBV activity in HepG2.2.15 cells (HBV DNA by quantitative PCR); assay type: cell-based; conditions: Hepatitis B virus
Procedure: Experimental method: anti-HBV activity of compounds was detected by Bright-Glo (Promega) luciferase.
Anti-cell viability assay: in vitro anti-hepatitis b virus activity of Example compounds was tested in HepG2.2.15 cells with TDF as a positive control compound. Cells were seeded into a 96-well plate on the first day; the compounds were added to treat the cells on the next day; and a new culture medium containing the compounds was replaced on the fifth day. On the eighth day, the supernatant was collected for DNA extraction. The content of HBV DNA was detected by quantitative PCR. Both test compound and TDF were subjected to a 3-fold serial dilution to get 8 concentration points in duplicate. The final concentration of DMSO in the culture medium was 0.5%. The formula for calculating the percentage of inhibition is as follows: Inhibition rate=(1−copy number of HBV in sample/copy number of HBV in DMSO control group)×100%
EC50 is analyzed by Graphpad Prism software (four parameter logistic equations), wherein I represents EC50≤50 nM, II represents 50 nM≤EC50≤200 nM, III represents 200 nM<EC50≤500 nM, IV represents EC50>500 nM (as shown in Table 1 below).

[4] = Cytotoxicity experiment of the anti-HBV test (Cell-titer Blue); assay type: cell-based; conditions: human, six days after treatment
[5] = Human liver microsome metabolic stability; assay type: in vitro ADME; conditions: pH 7.4, 1 μM compound, 0.5 mg/mL protein, NADPH; for microsomal CLint at 1 μM / microsomal CLint: read-out: Human liver microsome experiment CLint; for half-life at 1 μM / half-life: read-out: Human liver microsome experiment t1/2
Procedure: (§1) Microsomal experiments: human liver microsomes: 0.5 mg/mL, Xenotech; rat liver microsomes: 0.5 mg/mL, Xenotech; coenzyme (NADPH/NADH): 1 mM, Sigma Life Science; magnesium chloride: 5 mM, 100 mM phosphate buffer (pH 7.4).
(§2) Preparation of stock solution: powder of Example compounds were precisely weighed and dissolved in DMSO to 5 mM.
(§3) Preparation of phosphate buffer (100 mm, pH7.4): 0.5M pre-formulated potassium dihydrogen phosphate (150 ml) and 0.5M potassium hydrogen phosphate (700 ml) were mixed well. The pH of the mixture was then adjusted to 7.4 with 0.5M potassium hydrogen phosphate solution. The resulting solution was 5-fold diluted with ultrapure water before use, and magnesium chloride was added to the solution, affording a phosphate buffer (100 mm), containing potassium phosphate (100 mM), magnesium chloride (3.3 mM), pH 7.4.
(§4) A NADPH regeneration system solution (containing 6.5 mM NADP, 16.5 mM G-6-P, 3 U/mL G-6-P D, 3.3 mM magnesium chloride) was formulated, which was placed on wet ice before use.
(§5) Preparation of stop solution: 50 ng/mL of propranolol hydrochloride and 200 ng/mL of tolbutamide (internal standard) in acetonitrile. 25057.5 μL of phosphate buffer (pH 7.4) was placed to a 50 mL centrifuge tube, and 812.5 μL human liver microsomes were added to the tube, which were mixed well to give a protein concentration of 0.625 mg/mL liver microsomes diluent. 25057.5 μL of phosphate buffer (pH 7.4) was placed to a 50 ml centrifuge tube, and 812.5 μL SD rat liver microsomes were added to the tube, which were mixed well to give a protein concentration of 0.625 mg/mL liver microsomes diluent.
(§6) Incubation of the sample: the stock solution of the corresponding compounds was diluted to 0.25 mM with 70% acetonitrile in water as a working solution for later use. 398 μL of human liver microsomes dilution or rat liver microsomes dilution was added into 96-well incubation plate (N=2), and 2 μL of 0.25 mM working solution was added to the plate, which were mixed well.
(§7) Metabolic stability assay: 300 μL of pre-chilled stop solution was added to each well of a 96-well deep-well plate and the plate was placed on ice as a stop plate. The 96-well incubation plate and NADPH regeneration system were placed in a 37° C. water bath, shaked at 100 rpm, pre-incubated for 5min. 80 μL of incubation solution was taken from each well of the incubation plate and was added to the stop plate, which were mixed well. 20 μL of NADPH regeneration system solution was supplemented into the mixture to form the 0 min sample. Then 80 μL of NADPH regeneration system solution was added to each well of the incubation plate to initiate the reaction and start timing. The reaction concentration of the corresponding compound was 1 μM, and the protein concentration was 0.5 mg/mL. At 10, 30, and 90 min, 100 μL of the reaction solution was added to the stop plate and vortexed for 3 min to quench the reaction. The stop plate was centrifuged at 5000×g at 4° C. for 10 min. 100 μL of supernatant was taken into a 96-well plate containing 100 μL of distilled water, which were mixed well. LC-MS/MS was used for sample analysis.
(§8) Data analysis: The peak area of the corresponding compounds and internal standard was detected by LC-MS/MS system, and the peak area ratio of compounds to internal standard was calculated. The slope was measured by plotting the natural log of the percentage of the remaining amount of the compounds versus time, and t1/2 and CLint were calculated according to the following formula, where V/M is equal to 1/protein concentration.

[6] = Rat liver microsome metabolic stability; assay type: in vitro ADME; conditions: SD, pH 7.4, 1 μM compound, 0.5 mg/mL protein, NADPH; for microsomal CLint at 1 μM / microsomal CLint: read-out: Rat liver microsome experiment CLint; for half-life at 1 μM / half-life: read-out: Rat liver microsome experiment t1/2
Procedure: as §1, §2, §3, §4, §5, §6, §7, §8

[7] = relative to TDF; cited from earlier work
[8] = relative to TDF; cited from earlier work; remark: listed apart in the source
[9] = HepG2.2.15 cells, HBV DNA in supernatant on the eighth day, read-out: HBV activity and cytotoxicity data EC50

In the case of CC(=O)SCCOP(=O)(CO[C@H](C)Cn1cnc2c(N)ncnc21)OCOC(=O)OC(C)C (stereo partly drawn) [Compound T-8, (R)-9-{2-[(acetylsulfanylethyl)(isopropylcarbonatemethyl)phosphorylmethoxy]propyl}adenine], the EC50 [1] is reported as 20 to 100 nM, the CC50 at 5 days [2] is reported as 10000 to 50000 nM and the EC50 [3, 9] is reported as 200 to 500 nM. For the same molecule, the CC50 at 6 days ([4]; HepG2.2.15 cells) was > 50000 nM, the microsomal CLint at 1 μM ([5]; human liver microsomes) was 84.1 µL/min/mg and the half-life at 1 μM ([5]; human liver microsomes) was 16.5 min. The microsomal CLint at 1 μM ([6]; rat liver microsomes) was 92.7 µL/min/mg and the half-life at 1 μM ([6]; rat liver microsomes) was 14.9 min.
For CCCCCCCCCCCCCCCCOCCCOP(=O)(CO[C@H](C)Cn1cnc2c(N)ncnc21)OCOC(=O)SC(C)C (stereo partly drawn) [Compound T-5, (R)-9-{2-[(hexadecyloxypropyl)(isopropylsulfanylcarbonyloxymethyl)phosphorylmethoxy]propyl}adenine], the EC50 [1] was 5 to 20 nM, the CC50 at 5 days [2] was > 50000 nM and the EC50 [3, 9] was 50 to 200 nM. The CC50 at 6 days ([4]; HepG2.2.15 cells) was > 50000 nM, the microsomal CLint at 1 μM ([5]; human liver microsomes) was 42.7 µL/min/mg and the half-life at 1 μM ([5]; human liver microsomes) was 32.5 min. For the same molecule, the microsomal CLint at 1 μM ([6]; rat liver microsomes) was 56.6 µL/min/mg and the half-life at 1 μM ([6]; rat liver microsomes) was 24.5 min.
In the case of CCCCCCCCCCCCCCCCOCCCOP(=S)(CO[C@H](C)Cn1cnc2c(N)ncnc21)N[C@@H](C)C(=O)OC(C)C (stereo partly shown) [Compound T-6], the EC50 [1] is reported as > 500 nM, the CC50 [2] is reported as 3000 to 10000 nM and the EC50 [3, 9] is reported as 200 to 500 nM. For the same molecule, the CC50 [4] was 7000 to 50000 nM, the microsomal CLint ([5]; microsomes) was 12.9 µL/min/mg and the half-life ([5]; microsomes) was 107 min. For the same molecule, the microsomal CLint ([6]; microsomes) was 9.9 µL/min/mg and the half-life ([6]; microsomes) was 140 min.
CC(C)OC(=O)[C@H](C)NP(=S)(CO[C@H](C)Cn1cnc2c(N)ncnc21)Oc1ccccc1 (stereo partly drawn) [Compound T-3, 9-{(R)-2-[({[(S)-1-(isopropoxycarbonyl)ethyl]amino}phenoxythiophosphoryl)methoxy]lpropyl}adenine] gave an EC50 [1] of 5 to 20 nM, a CC50 at 5 days [2] of 3000 to 10000 nM and an EC50 ([3]; HepG2.2.15, read-out: HBV activity and cytotoxicity data EC50 (nM)) of 50 to 200 nM. The CC50 at 6 days [4] was > 50000 nM, the microsomal CLint at 1 μM ([5]; microsomes) was 285 µL/min/mg and the half-life at 1 μM ([5]; microsomes) was 4.9 min. For the same molecule, the microsomal CLint at 1 μM ([6]; microsomes) was 82.5 µL/min/mg and the half-life at 1 μM ([6]; microsomes) was 16.8 min.
For CC(C)OC(=O)[C@H](C)N[P@](=O)(CO[C@H](C)Cn1cnc2c(N)ncnc21)Oc1ccccc1 [TAF, Tenofovir Alafenamide Fumarate], the “concentration of TFV in plasma metabolized by TAF, lower than that of TDF” value [7] is listed as 90% and the “concentration of TFV in immune cells metabolized by TAF, higher than that of TDF” value [8] is listed as 4 times.
For CCCCCCCCCCCCCCCCOCCCOP(=O)(CO[C@H](C)Cn1cnc2c(N)ncnc21)N[C@@H](C)C(=O)SC(C)C (stereo partly shown) [Compound T-7], the EC50 [1] was < 5 nM, the CC50 at 5 days [2] was 3000 to 10000 nM and the EC50 [3, 9] was 50 to 200 nM. The CC50 at 6 days ([4]; HepG2.2.15 cells) was 7000 to 50000 nM, the microsomal CLint at 1 μM ([5]; human liver microsomes) was 84.4 µL/min/mg and the half-life at 1 μM ([5]; human liver microsomes) was 16.4 min. For the same molecule, the microsomal CLint at 1 μM ([6]; rat liver microsomes) was 50.8 µL/min/mg and the half-life at 1 μM ([6]; rat liver microsomes) was 27.3 min.
With CCCCCCCCCCCCCCCCOCCCOP(=S)(CO[C@H](C)Cn1cnc2c(N)ncnc21)OCOC(=O)OC(C)C (stereo partly drawn) [Compound T-4, (R)-9-{2-[(hexadecyloxypropyl)(isopropylcarbonatemethyl)thiophosphorylmethoxy]propyl}adenine] the EC50 [1] was > 500 nM, the CC50 [2] was > 50000 nM and the EC50 [3, 9] was > 500 nM. The CC50 [4] was > 50000 nM, the microsomal CLint ([5]; microsomes) was 116 µL/min/mg and the half-life ([5]; microsomes) was 11.9 min. The microsomal CLint ([6]; microsomes) was 68.5 µL/min/mg and the half-life ([6]; microsomes) was 20.2 min.
With CCCCCCCCCCCCCCCCOCCCOP(O)(=S)CO[C@H](C)Cn1cnc2c(N)ncnc21 (stereo partly shown) [Compound T-1] the EC50 [1] was 5 to 20 nM, the CC50 [2] was 3000 to 10000 nM and the EC50 [3, 9] was < 50 nM. For the same molecule, the CC50 [4] was 7000 to 50000 nM, the microsomal CLint ([5]; microsomes) was 45.6 µL/min/mg and the half-life ([5]; microsomes) was 3.04 min. For the same molecule, the microsomal CLint ([6]; microsomes) was 5.6 µL/min/mg and the half-life ([6]; microsomes) was 249 min.
